Results: PMC8426238, “Synthesis and preclinical evaluation of [^11C]MTP38 as a novel PET ligand for phosphodiesterase 7 in the brain” (European Journal of Nuclear Medicine and Molecular Imaging, 2021)

Legend:
[1] = system: 67 non-PDE molecules; experiment: off-target screen panel, overall statement; format: binding; settings: all 67 non-PDE molecules of the panel
[2] = target: T1, Glucocorticoid (Homo sapiens, UniProt P04150); experiment: off-target screen panel; format: binding; settings: Human recombinant, [^3H]Dexamethasone
T1 construct: purchased Eurofins Panlabs Discovery Services (Taiwan)
T1 sequence (P04150 whole entry): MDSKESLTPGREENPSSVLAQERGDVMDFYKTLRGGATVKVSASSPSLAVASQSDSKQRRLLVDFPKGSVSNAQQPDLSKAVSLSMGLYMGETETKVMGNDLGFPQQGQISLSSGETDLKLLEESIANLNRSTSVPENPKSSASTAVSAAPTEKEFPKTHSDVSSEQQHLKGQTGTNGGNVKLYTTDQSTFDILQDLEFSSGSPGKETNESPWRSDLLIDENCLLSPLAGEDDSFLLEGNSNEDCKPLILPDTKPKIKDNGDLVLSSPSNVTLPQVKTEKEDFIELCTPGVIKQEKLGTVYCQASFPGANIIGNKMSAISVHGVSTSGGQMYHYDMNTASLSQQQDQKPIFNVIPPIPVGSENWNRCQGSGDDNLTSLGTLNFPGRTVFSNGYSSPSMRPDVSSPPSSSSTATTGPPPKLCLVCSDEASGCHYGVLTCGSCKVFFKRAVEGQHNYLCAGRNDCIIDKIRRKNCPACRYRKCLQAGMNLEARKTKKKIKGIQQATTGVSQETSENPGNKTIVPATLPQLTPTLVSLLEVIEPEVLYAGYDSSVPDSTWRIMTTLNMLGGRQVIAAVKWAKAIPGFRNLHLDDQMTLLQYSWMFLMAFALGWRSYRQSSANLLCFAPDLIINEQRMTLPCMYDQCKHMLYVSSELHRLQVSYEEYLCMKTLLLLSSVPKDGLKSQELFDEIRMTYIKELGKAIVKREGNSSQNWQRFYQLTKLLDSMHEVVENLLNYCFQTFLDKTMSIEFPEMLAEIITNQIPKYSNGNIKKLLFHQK

[3] = system: Imidazoline I2, Central; experiment: off-target screen panel; format: binding; settings: Rat cerebral cortex, [^3H]Idazoxan
[4] = target: T2, Bradykinin B1 (Homo sapiens, UniProt P46663); experiment: off-target screen panel; format: binding; settings: Human IMR-90 cells, [^3H](Des-Arg^10)-Kallidin
T2 construct: purchased Eurofins Panlabs Discovery Services (Taiwan)

[5] = target: T3, Opiate κ (OP2, KOP) (Homo sapiens, UniProt P41145); experiment: off-target screen panel; format: binding; settings: Human recombinant, [^3H]Diprenorphine
T3 construct: purchased Eurofins Panlabs Discovery Services (Taiwan)

[6] = system: Calcium Channel L-Type, Benzothiazepine; experiment: off-target screen panel; format: binding; settings: Rat brain, [^3H]Diltiazem
[7] = target: T4, Dopamine D3 (Homo sapiens, UniProt P35462); experiment: off-target screen panel; format: binding; settings: Human recombinant, [^3H]Spiperone
T4 construct: purchased Eurofins Panlabs Discovery Services (Taiwan)

[8] = system: Nicotinic Acetylcholine; experiment: off-target screen panel; format: binding; settings: Human IMR-32 cells, [^125I]Epibatidine
[9] = target: T5, Transporter, Serotonin (5-Hydroxytryptamine) (SERT) (Homo sapiens, UniProt P31645); experiment: off-target screen panel; format: binding; settings: Human recombinant, [^3H]Paroxetine
T5 construct: purchased Eurofins Panlabs Discovery Services (Taiwan)

[10] = target: T6, Histamine H1 (Homo sapiens, UniProt P35367); experiment: off-target screen panel; format: binding; settings: Human recombinant, [^3H]Pyrilamine
T6 construct: purchased Eurofins Panlabs Discovery Services (Taiwan)
T6 sequence (P35367 whole entry): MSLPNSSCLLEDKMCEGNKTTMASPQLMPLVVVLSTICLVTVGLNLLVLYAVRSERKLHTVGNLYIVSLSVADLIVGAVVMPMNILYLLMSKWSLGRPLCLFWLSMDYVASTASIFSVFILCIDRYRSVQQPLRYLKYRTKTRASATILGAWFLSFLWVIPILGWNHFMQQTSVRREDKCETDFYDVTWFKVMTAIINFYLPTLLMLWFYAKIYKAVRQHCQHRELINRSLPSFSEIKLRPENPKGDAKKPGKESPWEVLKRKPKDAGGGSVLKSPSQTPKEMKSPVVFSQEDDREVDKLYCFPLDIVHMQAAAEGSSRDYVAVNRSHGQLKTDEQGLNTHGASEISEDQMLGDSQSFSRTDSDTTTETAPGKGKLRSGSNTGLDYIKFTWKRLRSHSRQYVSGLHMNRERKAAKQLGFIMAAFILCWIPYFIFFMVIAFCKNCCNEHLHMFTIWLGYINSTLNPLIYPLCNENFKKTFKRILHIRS

[11] = system: PDE7; experiment: In vitro autoradiography of monkey brain sections with [^11C]MTP38; format: binding, rhesus monkeys; settings: [^11C]MTP38 2 nM, unlabeled MTP38 10 μM
Procedure: (§1) In vitro autoradiography was performed using 20-μm-thick fresh-frozen brain sections derived from Sprague-Dawley rats and rhesus monkeys. The sections were preincubated for 10 min in 50 mM Tris-HCl buffer (pH 7.4) at room temperature. These samples were then incubated for 60 min at room temperature in fresh buffer containing [^11C]MTP38 (2 nM) with or without unlabeled MTP38 (10 μM), MTP-X (4 μM), or MT-3014 (40 nM). The concentrations of MTP-X and MT-3014 were more than 400-fold of reported IC50 values of these agents. After the incubation, the brain sections were immersed twice in cold buffer for 3 min, dipped in cold distilled water for 10 s, and dried with warm airflow. Then the sections were contacted with imaging plates (BAS-MS2025, Fujifilm, Tokyo, Japan) for 60 min. The imaging plates were scanned with an imaging plate reader (BAS5000, Fujifilm, Tokyo, Japan), and the images were analyzed with the MultiGuage software (ver. 3.0, Fujifilm, Tokyo, Japan).

[12] = target: T7, Interleukin IL-1 R1 (Homo sapiens, UniProt P14778); experiment: off-target screen panel; format: binding; settings: Human recombinant, [^125I]Interleukin-1β
T7 construct: purchased Eurofins Panlabs Discovery Services (Taiwan)

[13] = system: Thyroid Hormone; experiment: off-target screen panel; format: binding; settings: Rat liver, [^125I]Triiodothyronine
[14] = target: T8, Serotonin (5-Hydroxytryptamine) 5-HT2B (Homo sapiens, UniProt P41595); experiment: off-target screen panel; format: binding; settings: Human recombinant, [^3H]Lysergic acid diethylamide (LSD)
T8 construct: purchased Eurofins Panlabs Discovery Services (Taiwan)

[15] = target: T9, Neuropeptide Y Y1 (Homo sapiens, UniProt P25929); experiment: off-target screen panel; format: binding; settings: Human SK-N-MC cells, [^125I]Peptide YY
T9 construct: purchased Eurofins Panlabs Discovery Services (Taiwan)

[16] = system: Calcium Channel L-Type, Dihydropyridine; experiment: off-target screen panel; format: binding; settings: Rat cerebral cortex, [^3H]Nitrendipine
[17] = target: T10, Adrenergic α1B (Rattus norvegicus, UniProt P15823); experiment: off-target screen panel; format: binding; settings: Rat liver, [^3H]Prazosin
T10 construct: purchased Eurofins Panlabs Discovery Services (Taiwan)

[18] = target: T11, GABAB1A (Homo sapiens, UniProt Q9UBS5); experiment: off-target screen panel; format: binding; settings: Human recombinant, [^3H]CGP-54626
T11 construct: purchased Eurofins Panlabs Discovery Services (Taiwan)

[19] = system: PDE7; experiment: In vitro autoradiography of rat brain sections with [^11C]MTP38; format: binding, Sprague-Dawley rats; settings: [^11C]MTP38 2 nM, unlabeled MTP38 10 μM, MTP-X 4 μM, MT-3014 40 nM
Procedure: as §1

[20] = target: T12, Sigma σ1 (Homo sapiens, UniProt Q99720); experiment: off-target screen panel; format: binding; settings: Human Jurkat cells, [^3H]Haloperidol
T12 construct: purchased Eurofins Panlabs Discovery Services (Taiwan)

[21] = system: Potassium Channel [KATP]; experiment: off-target screen panel; format: binding; settings: Hamster pancreatic HIT-T15 beta cells, [^3H]Glyburide
[22] = target: T13, Muscarinic M3 (Homo sapiens, UniProt P20309); experiment: off-target screen panel; format: binding; settings: Human recombinant, [^3H]N-Methylscopolamine
T13 construct: purchased Eurofins Panlabs Discovery Services (Taiwan)
T13 sequence (P20309 whole entry): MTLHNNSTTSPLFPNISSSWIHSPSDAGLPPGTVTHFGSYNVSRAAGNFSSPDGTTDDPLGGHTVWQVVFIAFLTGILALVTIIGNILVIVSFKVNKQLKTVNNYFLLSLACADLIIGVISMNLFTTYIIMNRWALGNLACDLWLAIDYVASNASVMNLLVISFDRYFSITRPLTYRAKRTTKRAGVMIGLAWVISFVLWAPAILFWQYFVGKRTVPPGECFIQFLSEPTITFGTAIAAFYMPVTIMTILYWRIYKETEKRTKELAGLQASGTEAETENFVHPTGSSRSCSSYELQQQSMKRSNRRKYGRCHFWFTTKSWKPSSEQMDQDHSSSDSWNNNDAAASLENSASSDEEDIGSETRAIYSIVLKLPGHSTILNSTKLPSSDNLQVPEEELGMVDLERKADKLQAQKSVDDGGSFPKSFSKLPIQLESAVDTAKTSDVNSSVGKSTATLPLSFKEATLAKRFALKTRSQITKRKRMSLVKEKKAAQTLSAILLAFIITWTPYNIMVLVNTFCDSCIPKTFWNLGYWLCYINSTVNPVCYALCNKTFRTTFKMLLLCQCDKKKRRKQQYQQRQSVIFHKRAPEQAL

[23] = target: T14, Serotonin (5-Hydroxytryptamine) 5-HT3 (Homo sapiens, UniProt P46098); experiment: off-target screen panel; format: binding; settings: Human recombinant, [^3H]GR-65630
T14 construct: purchased Eurofins Panlabs Discovery Services (Taiwan)

[24] = system: Glutamate, NMDA, Phencyclidine; experiment: off-target screen panel; format: binding; settings: Rat cerebral cortex, [^3H]TCP
[25] = target: T15, Endothelin ETB (Homo sapiens, UniProt P24530); experiment: off-target screen panel; format: binding; settings: Human recombinant, [^125I]Endothelin-1
T15 construct: purchased Eurofins Panlabs Discovery Services (Taiwan)
T15 sequence (P24530 27-442): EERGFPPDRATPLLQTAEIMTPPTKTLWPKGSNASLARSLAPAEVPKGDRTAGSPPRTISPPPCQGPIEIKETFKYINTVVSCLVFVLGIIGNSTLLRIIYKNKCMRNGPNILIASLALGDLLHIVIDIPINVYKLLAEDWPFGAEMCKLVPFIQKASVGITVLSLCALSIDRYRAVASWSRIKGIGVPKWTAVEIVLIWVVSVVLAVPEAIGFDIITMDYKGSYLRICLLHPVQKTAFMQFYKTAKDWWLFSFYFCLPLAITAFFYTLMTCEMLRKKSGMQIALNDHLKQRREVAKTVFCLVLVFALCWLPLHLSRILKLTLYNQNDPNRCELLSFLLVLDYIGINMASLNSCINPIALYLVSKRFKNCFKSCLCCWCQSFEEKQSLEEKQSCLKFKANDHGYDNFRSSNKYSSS

[26] = target: T16, Histamine H2 (Homo sapiens, UniProt P25021); experiment: off-target screen panel; format: binding; settings: Human recombinant, [^125I]Aminopotentidine
T16 construct: purchased Eurofins Panlabs Discovery Services (Taiwan)
T16 sequence (P25021 whole entry): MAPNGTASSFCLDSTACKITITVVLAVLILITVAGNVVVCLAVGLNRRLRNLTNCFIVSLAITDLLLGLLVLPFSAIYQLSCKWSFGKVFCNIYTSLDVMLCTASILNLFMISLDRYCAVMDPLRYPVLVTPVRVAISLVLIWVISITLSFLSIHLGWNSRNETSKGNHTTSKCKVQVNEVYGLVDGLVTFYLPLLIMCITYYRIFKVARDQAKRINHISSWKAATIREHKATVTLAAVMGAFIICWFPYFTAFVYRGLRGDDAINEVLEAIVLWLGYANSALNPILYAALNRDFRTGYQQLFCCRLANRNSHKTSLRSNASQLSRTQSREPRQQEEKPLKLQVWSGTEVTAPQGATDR

[27] = target: T17, Dopamine D2S (Homo sapiens, UniProt P14416); experiment: off-target screen panel; format: binding; settings: Human recombinant, [^3H]Spiperone
T17 construct: purchased Eurofins Panlabs Discovery Services (Taiwan)

[28] = target: T18, Calcium Channel N-Type (Rattus norvegicus, UniProt Q02294); experiment: off-target screen panel; format: binding; settings: read-out: Inhibition (%) at 1 μM
T18 construct: purchased Eurofins Panlabs Discovery Services (Taiwan)
T18 sequence (Q02294 whole entry): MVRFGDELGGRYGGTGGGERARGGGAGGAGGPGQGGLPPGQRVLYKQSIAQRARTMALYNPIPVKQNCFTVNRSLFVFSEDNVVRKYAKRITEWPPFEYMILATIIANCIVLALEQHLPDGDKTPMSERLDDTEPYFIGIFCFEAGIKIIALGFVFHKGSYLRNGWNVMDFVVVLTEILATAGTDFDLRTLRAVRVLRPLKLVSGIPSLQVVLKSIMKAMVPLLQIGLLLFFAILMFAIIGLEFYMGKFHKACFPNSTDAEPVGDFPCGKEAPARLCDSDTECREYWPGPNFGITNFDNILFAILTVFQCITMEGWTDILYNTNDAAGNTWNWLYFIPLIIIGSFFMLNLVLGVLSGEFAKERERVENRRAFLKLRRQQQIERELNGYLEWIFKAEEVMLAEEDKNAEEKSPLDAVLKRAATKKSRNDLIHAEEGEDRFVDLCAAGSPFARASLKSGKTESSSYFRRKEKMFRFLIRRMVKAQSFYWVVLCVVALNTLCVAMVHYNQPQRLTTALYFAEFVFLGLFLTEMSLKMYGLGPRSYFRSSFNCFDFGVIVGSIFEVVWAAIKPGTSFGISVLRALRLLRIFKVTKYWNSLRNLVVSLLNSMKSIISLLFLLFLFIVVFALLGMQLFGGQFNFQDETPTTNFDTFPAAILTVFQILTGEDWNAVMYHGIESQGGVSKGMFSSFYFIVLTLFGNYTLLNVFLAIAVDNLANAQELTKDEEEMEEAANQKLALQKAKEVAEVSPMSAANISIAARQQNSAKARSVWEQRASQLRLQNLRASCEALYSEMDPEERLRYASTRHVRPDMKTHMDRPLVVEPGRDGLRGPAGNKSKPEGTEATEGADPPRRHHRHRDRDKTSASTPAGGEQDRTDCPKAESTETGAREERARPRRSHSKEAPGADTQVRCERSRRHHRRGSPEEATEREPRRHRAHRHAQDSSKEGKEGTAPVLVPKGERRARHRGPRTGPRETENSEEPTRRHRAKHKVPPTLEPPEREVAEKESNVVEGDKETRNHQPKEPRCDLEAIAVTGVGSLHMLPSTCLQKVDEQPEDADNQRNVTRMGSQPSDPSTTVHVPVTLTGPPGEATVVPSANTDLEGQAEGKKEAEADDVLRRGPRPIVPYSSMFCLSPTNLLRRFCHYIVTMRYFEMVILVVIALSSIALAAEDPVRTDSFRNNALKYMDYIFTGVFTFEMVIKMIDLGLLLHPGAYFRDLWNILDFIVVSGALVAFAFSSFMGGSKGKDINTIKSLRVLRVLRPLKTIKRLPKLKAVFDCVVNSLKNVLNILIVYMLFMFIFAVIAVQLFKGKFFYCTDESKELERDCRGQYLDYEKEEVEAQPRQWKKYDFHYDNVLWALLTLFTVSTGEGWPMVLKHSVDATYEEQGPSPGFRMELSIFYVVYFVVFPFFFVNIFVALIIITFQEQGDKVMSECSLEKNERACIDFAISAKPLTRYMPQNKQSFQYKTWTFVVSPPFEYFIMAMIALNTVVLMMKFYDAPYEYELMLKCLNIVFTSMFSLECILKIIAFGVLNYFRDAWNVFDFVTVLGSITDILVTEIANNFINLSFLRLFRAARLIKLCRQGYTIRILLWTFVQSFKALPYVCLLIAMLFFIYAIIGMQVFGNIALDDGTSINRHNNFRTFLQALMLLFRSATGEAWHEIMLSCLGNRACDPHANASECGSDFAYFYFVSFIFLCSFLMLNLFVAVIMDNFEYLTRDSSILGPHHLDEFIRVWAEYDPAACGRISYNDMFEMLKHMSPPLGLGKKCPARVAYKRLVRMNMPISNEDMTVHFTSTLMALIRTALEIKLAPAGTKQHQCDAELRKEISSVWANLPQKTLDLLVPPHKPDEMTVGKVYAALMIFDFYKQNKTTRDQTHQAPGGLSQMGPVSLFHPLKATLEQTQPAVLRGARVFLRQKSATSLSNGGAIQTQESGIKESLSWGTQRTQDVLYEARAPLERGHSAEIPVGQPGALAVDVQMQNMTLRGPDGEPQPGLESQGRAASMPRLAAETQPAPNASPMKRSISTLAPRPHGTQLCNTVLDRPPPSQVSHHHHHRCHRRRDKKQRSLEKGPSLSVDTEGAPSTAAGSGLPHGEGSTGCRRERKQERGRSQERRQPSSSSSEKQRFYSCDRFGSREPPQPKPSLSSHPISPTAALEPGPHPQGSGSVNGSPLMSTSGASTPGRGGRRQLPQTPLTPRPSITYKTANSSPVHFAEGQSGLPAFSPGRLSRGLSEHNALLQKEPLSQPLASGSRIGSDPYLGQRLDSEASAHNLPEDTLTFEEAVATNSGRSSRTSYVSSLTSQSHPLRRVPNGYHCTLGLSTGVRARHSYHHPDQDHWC

[29] = target: T19, Endothelin ETA (Homo sapiens, UniProt P25101); experiment: off-target screen panel; format: binding; settings: Human recombinant, [^125I]Endothelin-1
T19 construct: purchased Eurofins Panlabs Discovery Services (Taiwan)

[30] = target: Glutamate, NMDA, Glycine (Rattus norvegicus, UniProt P35439); experiment: off-target screen panel; format: binding; settings: Rat cerebral cortex, [^3H]MDL 105,519
[31] = target: T20, Adrenergic β1 (Homo sapiens, UniProt P08588); experiment: off-target screen panel; format: binding; settings: Human recombinant, [^125I]Cyanopindolol
T20 construct: purchased Eurofins Panlabs Discovery Services (Taiwan)

[32] = target: T21, Adrenergic α1D (Homo sapiens, UniProt P25100); experiment: off-target screen panel; format: binding; settings: Human recombinant, [^3H]Prazosin
T21 construct: purchased Eurofins Panlabs Discovery Services (Taiwan)

C[C@@H]1CC[C@H](C)N(c2nnc3c(N)ncc(C#N)n23)C1 (relative stereo) [MTP38, 8-amino-3-(2S*,5R*-dimethyl-1-piperidyl)-[1,2,4]triazolo[4,3-a]pyrazine-5-carbonitrile]
inhibitions at 1 μM of the 67 non-PDE molecules tested [1]: less than 50% | inhibition at 1 µM [2]: 0% | Inhibition (%) at 1 μM [3]: -8% | inhibition at 1 µM [4]: 9% | inhibition at 1 µM [5]: 9% | Inhibition (%) at 1 μM [6]: 16% | inhibition at 1 µM [7]: 0% | Inhibition (%) at 1 μM [8]: -8% | inhibition at 1 µM [9]: -14% | inhibition at 1 µM [10]: -20% | effect of blocker on striatal radioactivity of [^11C]MTP38 [11]: reduced the striatal radioactivity | inhibition at 1 µM [12]: -5% | Inhibition (%) at 1 μM [13]: 7% | inhibition at 1 µM [14]: -1% | inhibition at 1 µM [15]: -13% | Inhibition (%) at 1 μM [16]: 7% | inhibition at 1 µM [17]: -3% | inhibition at 1 µM [18]: -10% | effect of blocker on striatal radioactivity of [^11C]MTP38 [19]: reduced the striatal radioactivity | inhibition at 1 µM [20]: 6% | Inhibition (%) at 1 μM [21]: 5% | inhibition at 1 µM [22]: -21% | inhibition at 1 µM [23]: -11% | Inhibition (%) at 1 μM [24]: -5% | inhibition at 1 µM [25]: 3% | inhibition at 1 µM [26]: -9% | inhibition at 1 µM [27]: 4% | inhibition at 1 µM [28]: 1% | inhibition at 1 µM [29]: -10% | inhibition at 1 µM [30]: -15% | inhibition at 1 µM [31]: -2% | inhibition at 1 µM [32]: -3%
